The target of the assay is human ACC2 (Homo sapiens (Human), UniProt O00763). Description: ACC2 assay: spectrophotometric 384 well assay (coupled lactate dehydrogenase/pyruvate kinase). It counts as biochemical. The note with it: hACC2 construct lacking the 128 N-terminal amino acids, 25° C., 340 nm. As to the method:
Spectrophotometric 384 Well Assay
Malonyl CoA formation by acetyl CoA carboxylases is stoichiometrically linked to the consumption of ATP. ACC2 activity is measured in a […] kinetic method measuring ADP generated during the ACC reaction using a coupled lactate dehydrogenase/pyruvate kinase reaction.
For biological testing, a human ACC2 construct which lacks the 128 amino acids at the N-terminus for increased solubility (nt 385-6966 in Genbank entry AJ575592) is cloned. The protein is then expressed in insect cells using a baculoviral expression system. Protein purification is performed by anion exchange.
All compounds are dissolved in dimethyl sulfoxide (DMSO) to a concentration of 10 mM.
Assay reactions are then carried out in 384-well plates, with hACC2 in an appropriate dilution and at final assay concentrations (f.c.) of 100 mM Tris (pH 7.5), 10 mM trisodium citrate, 25 mM KHCO3, 10 mM MgCl2, 0.5 mg/ml BSA, 3.75 mM reduced L-glutathione, 15 U/ml lactate dehydrogenase, 0.5 mM phosphoenolpyruvate, 15 U/ml pyruvate kinase, compounds at different concentrations at final DMSO concentrations of 1%.
The enzymatic reaction is then started by addition of a mixture of NADH, acetyl Coenzyme A (both […].) and ATP (500 uM f.c.). The decrease of the optical density (slope S) is then determined at 25° C. at a wavelength of 340 nm over 15 minutes in a spectrophotometric reader.
Each assay microtiter plate contains wells with vehicle instead of compound as controls for the non-inhibited enzyme (100% CTL; ‘HIGH’) and wells without acetyl-CoA as controls for non-specific NADH degradation (0% CTL; ‘LOW’).
The slope S is used for calculation of % CTL=(S(compound)−S(‘LOW’))/(S(‘HIGH’)−S(‘LOW’))*100. Compounds will give values between 100% CTL (no inhibition) and 0% CTL (complete inhibition).
For IC50 value determination, the sample slope in the presence of the test compound after subtraction of the low controls (S(compound)−S(‘LOW’)) are used.
An IC50 value is derived from the compound slopes at different dosages after subtraction of the low controls (S(compound)-S(‘LOW’)) by non-linear regression curve fitting (equation y=(A+((B−A)/(1+((C/x)^D))))).

SMILES strings stand for the structures.

Broadly, the IC50 is the midpoint of a concentration-inhibition curve. Low readings indicate higher potency, high ones lower potency.

human ACC2, sequence (O00763 129-2458): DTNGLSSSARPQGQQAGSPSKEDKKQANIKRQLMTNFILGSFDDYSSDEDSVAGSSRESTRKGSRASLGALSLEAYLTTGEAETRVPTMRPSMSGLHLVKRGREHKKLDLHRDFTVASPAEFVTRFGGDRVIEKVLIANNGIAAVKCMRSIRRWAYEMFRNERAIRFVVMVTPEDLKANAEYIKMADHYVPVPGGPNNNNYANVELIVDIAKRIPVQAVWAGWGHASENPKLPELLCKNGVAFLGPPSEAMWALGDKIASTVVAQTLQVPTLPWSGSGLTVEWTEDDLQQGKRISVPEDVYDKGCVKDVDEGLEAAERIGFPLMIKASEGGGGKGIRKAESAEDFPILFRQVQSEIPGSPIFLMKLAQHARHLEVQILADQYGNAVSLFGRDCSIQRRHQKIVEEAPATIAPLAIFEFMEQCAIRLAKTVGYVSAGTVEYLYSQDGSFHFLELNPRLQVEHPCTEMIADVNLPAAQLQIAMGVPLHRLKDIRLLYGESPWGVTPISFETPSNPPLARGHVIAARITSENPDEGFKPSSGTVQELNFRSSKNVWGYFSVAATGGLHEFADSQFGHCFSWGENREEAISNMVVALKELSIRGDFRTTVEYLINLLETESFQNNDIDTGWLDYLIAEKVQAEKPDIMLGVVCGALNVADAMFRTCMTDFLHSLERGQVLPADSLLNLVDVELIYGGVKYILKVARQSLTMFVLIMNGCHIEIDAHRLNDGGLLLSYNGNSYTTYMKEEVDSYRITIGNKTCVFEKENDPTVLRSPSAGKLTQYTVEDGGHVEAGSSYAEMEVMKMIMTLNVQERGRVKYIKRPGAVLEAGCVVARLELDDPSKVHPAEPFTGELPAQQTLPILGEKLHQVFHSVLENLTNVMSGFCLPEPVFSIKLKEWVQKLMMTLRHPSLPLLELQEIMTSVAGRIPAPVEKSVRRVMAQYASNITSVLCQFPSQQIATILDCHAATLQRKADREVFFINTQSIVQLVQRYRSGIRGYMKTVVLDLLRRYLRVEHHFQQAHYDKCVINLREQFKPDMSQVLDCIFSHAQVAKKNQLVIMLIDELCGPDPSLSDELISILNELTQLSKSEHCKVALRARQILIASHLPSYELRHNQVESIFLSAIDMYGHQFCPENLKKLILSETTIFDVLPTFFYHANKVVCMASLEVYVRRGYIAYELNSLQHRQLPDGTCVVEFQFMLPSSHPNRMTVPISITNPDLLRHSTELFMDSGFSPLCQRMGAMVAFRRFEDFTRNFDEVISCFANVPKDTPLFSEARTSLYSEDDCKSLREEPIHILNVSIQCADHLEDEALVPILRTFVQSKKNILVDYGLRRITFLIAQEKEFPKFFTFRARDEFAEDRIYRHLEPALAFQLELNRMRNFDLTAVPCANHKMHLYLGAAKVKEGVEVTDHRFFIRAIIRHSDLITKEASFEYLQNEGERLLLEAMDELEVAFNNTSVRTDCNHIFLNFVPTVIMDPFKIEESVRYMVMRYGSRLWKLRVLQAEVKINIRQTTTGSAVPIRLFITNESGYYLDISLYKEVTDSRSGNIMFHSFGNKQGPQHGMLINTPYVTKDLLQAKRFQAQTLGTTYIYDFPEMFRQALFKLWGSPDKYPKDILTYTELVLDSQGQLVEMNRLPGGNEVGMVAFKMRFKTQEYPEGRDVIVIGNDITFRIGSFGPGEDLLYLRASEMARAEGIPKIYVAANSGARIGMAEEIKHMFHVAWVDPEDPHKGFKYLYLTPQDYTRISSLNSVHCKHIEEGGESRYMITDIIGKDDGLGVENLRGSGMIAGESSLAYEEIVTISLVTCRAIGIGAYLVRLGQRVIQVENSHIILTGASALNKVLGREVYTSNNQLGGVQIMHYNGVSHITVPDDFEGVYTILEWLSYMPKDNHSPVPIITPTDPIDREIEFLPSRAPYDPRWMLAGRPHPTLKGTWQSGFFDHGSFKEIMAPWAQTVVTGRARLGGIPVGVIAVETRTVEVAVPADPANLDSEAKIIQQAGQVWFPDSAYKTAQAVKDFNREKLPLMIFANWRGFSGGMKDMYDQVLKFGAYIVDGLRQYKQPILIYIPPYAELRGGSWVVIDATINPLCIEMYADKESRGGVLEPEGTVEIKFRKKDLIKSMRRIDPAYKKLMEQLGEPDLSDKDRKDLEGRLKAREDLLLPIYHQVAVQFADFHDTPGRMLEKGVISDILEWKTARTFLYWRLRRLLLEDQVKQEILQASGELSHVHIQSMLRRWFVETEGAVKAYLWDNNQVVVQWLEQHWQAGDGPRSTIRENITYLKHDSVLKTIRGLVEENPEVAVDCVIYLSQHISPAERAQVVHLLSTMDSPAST

In turn, `CCC(=O)N[C@@H](C)c1ccc(CN2CCc3c(Br)cccc3C2)cc1` [Example 2.011] gave an IC50 of 194 nM.

As to `CC(=O)Nc1nc(C)c(C(=O)N[C@@H](C)c2ccc(CN3CCc4c(cccc4OC4CCC4)C3)cc2)s1` [Example 2.012], the IC50 turned out to be 97 nM. This IC50 lies about 2-fold lower than the previous one.

Consider `CCC(=O)N[C@@H](C)c1ccc(CN2CCc3c(cccc3OC3CCC3)C2)cc1` [Example 2.013], for which the IC50 stood at 166 nM.

Regarding `C[C@H](NC(=O)c1cncs1)c1ccc(CN2CCc3c(cccc3OC3CCC3)C2)cc1` [Example 2.014], the IC50 is 144 nM.

`C[C@H](NC(=O)C1CC1)c1ccc(CN2CCc3cc(OCC4CC(F)(F)C4)ccc3C2)cc1` [Example 2.015] registered an IC50 of 38 nM.

As to `C[C@H](NC(=O)C1CC1)c1ccc(CN2CCc3cc(OCCCF)ccc3C2)cc1` [Example 2.016], the half-maximal inhibitory concentration (IC50) is 299 nM.

Take `C[C@H](NC(=O)C1CC1)c1ccc(CN2CCc3cc(OCC4CCC4)ccc3C2)cc1` [Example 2.017]: the half-inhibitory concentration (IC50) was determined as 38 nM. This IC50 is about 7.9-fold lower than that of the compound before.

The compound `C[C@H](NC(=O)C1CC1)c1ccc(CN2CCc3cc(OCCC4CC4)ccc3C2)cc1` [Example 2.018] yielded an IC50 of 47 nM. This IC50 and that of the compound before are within 1.5-fold of each other.

For `CC(C)COc1ccc2c(c1)CCN(Cc1ccc([C@H](C)NC(=O)C3CC3)cc1)C2` [Example 2.019], 57 nM corresponded to half-maximal inhibition (IC50).

As for `CC(=O)Nc1nc(C)c(C(=O)N[C@@H](C)c2ccc(CN3CCc4cc(OCC5CC5(F)F)ccc4C3)cc2)s1` (stereo partly shown) [Example 2.020], the midpoint of inhibition, the IC50, lay at 28 nM.

As for `CC(O)C(=O)N[C@@H](C)c1ccc(CN2CCc3cc(OCC4CC4)ccc3C2)cc1` (stereo partly shown) [Example 2.021], half-maximal inhibition (IC50) required 168 nM.

For `C[C@H](NC(=O)Cc1cncnc1)c1ccc(CN2CCc3cc(OCC4CC4)ccc3C2)cc1` [Example 2.022], the IC50 is 82 nM.

Regarding `C[C@H](NC(=O)CO)c1ccc(CN2CCc3cc(OCC4CC4)ccc3C2)cc1` [Example 2.023], it took 82 nM to reach half-maximal inhibition (IC50).

In turn, `C[C@H](NC(=O)C1(O)CC1)c1ccc(CN2CCc3cc(OCC4CC4)ccc3C2)cc1` [Example 2.024] had an IC50 of 150 nM.

`C[C@H](NC(=O)CO)c1ccc(CN2CCc3cc(OC[C@@H]4CC4(F)F)ccc3C2)cc1` [Example 2.025]: the IC50 amounted to 89 nM.

With `C[C@H](NC(=O)Cc1cncnc1)c1ccc(CN2CCc3cc(OC[C@@H]4CC4(F)F)ccc3C2)cc1` [Example 2.026], the IC50 was found to be 81 nM. This IC50 and that of the compound before are within 1.5-fold of each other.

Take `CC(O)C(=O)N[C@@H](C)c1ccc(CN2CCc3cc(OC[C@@H]4CC4(F)F)ccc3C2)cc1` (stereo partly shown) [Example 2.027]: the IC50 stood at 130 nM.

In the case of `C[C@H](NC(=O)C1(O)CC1)c1ccc(CN2CCc3cc(OC[C@@H]4CC4(F)F)ccc3C2)cc1` [Example 2.028], half-maximal inhibition (IC50) was put at 217 nM.

`C[C@H](NC(=O)C1CCC(=O)N1)c1ccc(CN2CCc3cc(OC[C@@H]4CC4(F)F)ccc3C2)cc1` (stereo partly shown) [Example 2.029] had an IC50 of 329 nM. Against the preceding compound, the IC50 is about 1.5-fold higher.

In turn, `C[C@H](NC(=O)CC(=O)N(C)C)c1ccc(CN2CCc3cc(OC[C@@H]4CC4(F)F)ccc3C2)cc1` [Example 2.031] had an IC50 of 447 nM.

For the compound `CC(=O)Nc1nc(C)c(C(=O)N[C@@H](C)c2ccc(CN3CCc4cc(OCC5CC5)ccc4C3)cc2)s1` [Example 2.032], half-maximal inhibition (IC50) was put at 34 nM. Compared with the last compound, the IC50 is about 13-fold lower.

For the compound `CCC(=O)Nc1nc(C)c(C(=O)N[C@@H](C)c2ccc(CN3CCc4cc(OCC5CC5)ccc4C3)cc2)s1` [Example 2.033], inhibition was half-maximal at 39 nM (IC50).

As for `C[C@H](NC(=O)CO)c1ccc(CN2Cc3ccc(OCC4CC4(F)F)cc3C(F)C2)cc1` (stereo partly shown) [Example 2.034], half-maximal inhibition (IC50) required 55 nM. This IC50 and that of the compound before are within 1.5-fold of each other.

Compound `CC(=O)Nc1nc(C)c(C(=O)N[C@@H](C)c2ccc(CN3Cc4ccc(OCC5CC5(F)F)cc4C(O)C3)cc2)s1` (stereo partly shown) [Example 2.035] yielded an IC50 of 259 nM.

Consider `C[C@H](NC(=O)C1CC(F)C1)c1ccc(CN2Cc3ccc(OCC4CC4(F)F)cc3C(O)C2)cc1` (stereo partly shown) [Example 2.036], for which inhibition was half-maximal at 408 nM (IC50).

Compound `C[C@H](NC(=O)CC#N)c1ccc(CN2Cc3ccc(OCC4CC4(F)F)cc3C(O)C2)cc1` (stereo partly shown) [Example 2.037] came in with an IC50 of 806 nM.

The compound `C[C@H](NC(=O)c1cncnc1)c1ccc(CN2CC(=O)c3cc(OCC4CC4(F)F)ccc3C2)cc1` (stereo partly shown) [Example 2.038] yielded an IC50 of 819 nM. This IC50 and that of the compound before are within 1.5-fold of each other.

`C[C@H](NC(=O)CO)c1ccc(CN2CC(=O)c3cc(OCC4CC4(F)F)ccc3C2)cc1` (stereo partly shown) [Example 2.039] yielded an IC50 of 565 nM. The IC50 values of the last two compounds are within 1.5-fold of each other.

`C[C@H](NC(=O)CO)c1ccc(CN2CC(=O)c3cc(OCC4CC4)ccc3C2)cc1` [Example 2.041] returned an IC50 of 600 nM. The IC50 values of the last two compounds are within 1.5-fold of each other.

`CC(O)C(=O)N[C@@H](C)c1ccc(CN2CC(=O)c3cc(OCC4CC4)ccc3C2)cc1` (stereo partly shown) [Example 2.042] had a 50% inhibitory concentration (IC50) of 624 nM.

In turn, `C[C@H](NC(=O)CC#N)c1ccc(CN2CC(=O)c3cc(OCC4CC4)ccc3C2)cc1` [Example 2.043] returned an IC50 of 428 nM.

For `C[C@H](NC(=O)Cc1cncnc1)c1ccc(CN2CC(=O)c3cc(OCC4CC4)ccc3C2)cc1` [Example 2.044], the 50% inhibitory concentration (IC50) was 446 nM.

For the compound `C[C@H](NC(=O)CC#N)c1ccc(CN2CCc3cc(OCC4CC4(F)F)ccc3C2)cc1` (stereo partly drawn) [Example 3.001, 2-Cyano-N—((S)-1-{4-[6-(2,2-difluoro-cyclopropylmethoxy)-3,4-dihydro-1H-isoquinolin-2-ylmethyl]-phenyl}-ethyl)-acetamide], the 50% inhibitory concentration (IC50) was 35 nM.

Turning to `C[C@H](NC(=O)C(C)(F)F)c1ccc(CN2CCc3cc(OCC4CC4(F)F)ccc3C2)cc1` (stereo partly shown) [Example 3.002], the IC50 amounted to 29 nM.

With `CC(C#N)C(=O)N[C@@H](C)c1ccc(CN2CCc3cc(OCC4CC4(F)F)ccc3C2)cc1` (stereo partly shown) [Example 3.003], the half-maximal inhibitory concentration (IC50) is 91 nM.

`C[C@H](NC(=O)Cc1cncnc1)c1ccc(CN2Cc3ccc(OCC4CC4(F)F)cc3C(F)C2)cc1` (stereo partly shown) [Example 3.03] registered a half-maximal inhibitory concentration (IC50) of 95 nM.

In the case of `C[C@H](NC(=O)c1cnn(C)c1)c1ccc(CN2CCc3cc(OCC4CC4(F)F)ccc3C2)cc1` (stereo partly shown) [Example 3.004], half-maximal inhibition (IC50) required 46 nM.

Take `C[C@H](NC(=O)C1(C(F)(F)F)CC1)c1ccc(CN2CCc3cc(OCC4CC4(F)F)ccc3C2)cc1` (stereo partly shown) [Example 3.005]: the IC50 is 59 nM. This IC50 and that of the compound before are within 1.5-fold of each other.

The compound `C[C@H](NC(=O)C1CCC1)c1ccc(CN2CCc3cc(OCC4CC4(F)F)ccc3C2)cc1` (stereo partly shown) [Example 3.006] displayed a concentration for half-maximal inhibition (IC50) of 38 nM.

Consider `C[C@H](NC(=O)C1CC(F)C1)c1ccc(CN2CCc3cc(OCC4CC4(F)F)ccc3C2)cc1` (stereo partly shown) [Example 3.007], for which half-maximal inhibition (IC50) was put at 50 nM.

As for `C[C@H](NC(=O)c1ccns1)c1ccc(CN2CCc3cc(OCC4CC4(F)F)ccc3C2)cc1` (stereo partly shown) [Example 3.008], the IC50 worked out at 68 nM. This IC50 and that of the compound before are within 1.5-fold of each other.

`C[C@H](NC(=O)c1cnco1)c1ccc(CN2CCc3cc(OCC4CC4(F)F)ccc3C2)cc1` (stereo partly shown) [Example 3.009] yielded a half-maximal inhibitory concentration (IC50) of 59 nM.

On to `C[C@H](NC(=O)c1cn[nH]c1)c1ccc(CN2CCc3cc(OCC4CC4(F)F)ccc3C2)cc1` (stereo partly shown) [Example 3.010], for which half-maximal inhibition (IC50) required 25 nM. Compared with the last compound, the IC50 is about 2.4-fold lower.

Compound `C[C@H](NC(=O)c1ccon1)c1ccc(CN2CCc3cc(OCC4CC4(F)F)ccc3C2)cc1` (stereo partly shown) [Example 3.011] showed an IC50 of 52 nM.

The compound `Cc1[nH]ncc1C(=O)N[C@@H](C)c1ccc(CN2CCc3cc(OCC4CC4(F)F)ccc3C2)cc1` (stereo partly shown) [Example 3.012] came in with an IC50 of 122 nM. Against the preceding compound, the IC50 is about 2.3-fold higher.

In turn, `C[C@H](NC(=O)C1(C#N)CC1)c1ccc(CN2CCc3cc(OCC4CC4(F)F)ccc3C2)cc1` (stereo partly shown) [Example 3.013] gave an IC50 of 40 nM.

In turn, `C[C@H](NC(=O)c1ccno1)c1ccc(CN2CCc3cc(OCC4CC4(F)F)ccc3C2)cc1` (stereo partly shown) [Example 3.014] showed an IC50 of 103 nM.

Turning to `C[C@H](NC(=O)C1(C)CC1)c1ccc(CN2CCc3cc(OCC4CC4(F)F)ccc3C2)cc1` (stereo partly shown) [Example 3.015], the IC50 turned out to be 24 nM.

Regarding `C[C@H](NC(=O)c1cnn(C)c1Cl)c1ccc(CN2CCc3cc(OCC4CC4(F)F)ccc3C2)cc1` (stereo partly shown) [Example 3.016], the midpoint of inhibition, the IC50, lay at 162 nM.

The compound `CCC(=O)Nc1nc(C)c(C(=O)N[C@@H](C)c2ccc(CN3CCc4cc(OCC5CC5(F)F)ccc4C3)cc2)s1` (stereo partly shown) [Example 3.017] had an IC50 of 37 nM.

Turning to `C[C@H](NC(=O)c1cnn(C)c1N)c1ccc(CN2CCc3cc(OCC4CC4(F)F)ccc3C2)cc1` (stereo partly shown) [Example 3.018], the concentration for half-maximal inhibition (IC50) was 208 nM. Compared with the last compound, the IC50 is about 5.6-fold higher.

In turn, `C[C@H](NC(=O)c1cncs1)c1ccc(CN2CCc3cc(OCC4CC4(F)F)ccc3C2)cc1` (stereo partly shown) [Example 3.019] returned an IC50 of 28 nM.

`Cc1nocc1C(=O)N[C@@H](C)c1ccc(CN2CCc3cc(OCC4CC4(F)F)ccc3C2)cc1` (stereo partly shown) [Example 3.020] displayed an IC50 of 33 nM.

`C[C@H](NC(=O)C1CC(F)(F)C1)c1ccc(CN2CCc3cc(OCC4CC4(F)F)ccc3C2)cc1` (stereo partly shown) [Example 3.021] returned an IC50 of 198 nM.

Compound `C[C@H](NC(=O)[C@H]1C[C@H](F)C1)c1ccc(CN2CCc3cc(OCC4CC4(F)F)ccc3C2)cc1` (stereo partly shown) [Example 3.022] returned an IC50 of 28 nM. This IC50 lies about 7.1-fold lower than the previous one.
